Test results reported in patent US10266549B2, “ULK1 inhibitors and methods using same” (SALK INSTITUTE FOR BIOLOGICAL STUDIES, priority 2014, dated 2019).

biological target: ULK1 (Homo sapiens (Human), UniProt O75385); assay: ULK1 inhibition assay (Table 1); format: biochemical; conditions: * = tested as a mixture of regioisomers
Sequence (O75385 whole entry, species assumed): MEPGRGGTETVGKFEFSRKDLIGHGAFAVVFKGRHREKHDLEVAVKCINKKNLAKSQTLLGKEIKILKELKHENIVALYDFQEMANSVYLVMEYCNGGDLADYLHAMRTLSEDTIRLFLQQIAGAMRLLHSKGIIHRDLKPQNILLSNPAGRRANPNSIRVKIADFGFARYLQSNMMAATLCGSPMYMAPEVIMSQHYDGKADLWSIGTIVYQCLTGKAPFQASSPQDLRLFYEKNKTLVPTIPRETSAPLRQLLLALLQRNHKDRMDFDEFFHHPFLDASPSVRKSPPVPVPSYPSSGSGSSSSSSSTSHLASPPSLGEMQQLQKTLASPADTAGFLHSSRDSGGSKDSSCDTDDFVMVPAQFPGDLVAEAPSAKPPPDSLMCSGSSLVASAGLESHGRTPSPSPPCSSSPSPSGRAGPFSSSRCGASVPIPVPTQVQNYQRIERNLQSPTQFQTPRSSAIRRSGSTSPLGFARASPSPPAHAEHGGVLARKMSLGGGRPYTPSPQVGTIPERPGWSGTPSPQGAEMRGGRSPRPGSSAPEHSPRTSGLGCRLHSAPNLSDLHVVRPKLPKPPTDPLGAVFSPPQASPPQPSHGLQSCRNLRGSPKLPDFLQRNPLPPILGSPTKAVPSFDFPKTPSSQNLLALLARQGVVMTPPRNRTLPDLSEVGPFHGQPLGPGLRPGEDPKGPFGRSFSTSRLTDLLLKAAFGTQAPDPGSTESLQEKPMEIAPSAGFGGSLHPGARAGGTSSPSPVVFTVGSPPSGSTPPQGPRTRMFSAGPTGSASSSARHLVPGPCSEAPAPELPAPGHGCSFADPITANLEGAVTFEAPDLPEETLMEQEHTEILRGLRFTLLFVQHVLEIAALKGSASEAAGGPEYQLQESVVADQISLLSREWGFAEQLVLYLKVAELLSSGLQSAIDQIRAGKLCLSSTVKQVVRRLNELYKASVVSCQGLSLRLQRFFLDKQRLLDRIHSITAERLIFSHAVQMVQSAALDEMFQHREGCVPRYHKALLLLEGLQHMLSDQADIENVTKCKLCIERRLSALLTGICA

Q: Which IC50 does the source give for `COc1ccc(Nc2nc(Nc3cc(OC)c(OC)c(OC)c3)ncc2Br)cn1` [compound 25, 5-Bromohloro-N^4-(6-methoxypyridin-3-yl)-N^2-(3,4,5-trimethoxyphenyl)pyrimidine-2,4-diamine] here?
A: Its IC50 is less than 200 nM.

Q: With `COc1ccc(C)c(Nc2ncc(Br)c(Nc3ccccn3)n2)c1` [compound 26, 5-Bromo-N^2-(5-methoxy-2-methylphenyl)-N^4-(pyridin-2-yl) pyrimidine-2,4-diamine] as the molecule, how does the IC50 read?
A: The IC50 was 200 to 2000 nM.

Q: For `COc1ccc(Nc2nc(Nc3ccc(N4CCOCC4)cc3OC)ncc2Cl)cn1` [compound 27, 5-Chloro-N^2-(2-methoxy-4-morpholinophenyl)-N^4-(6-methoxypyridin-3-yl)pyrimidine-2,4-diamine], which IC50 is on record?
A: The IC50 was greater than 2000 nM.

Q: `COc1ccc(Nc2nc(Nc3ccc(N4CCOCC4)cc3OC)ncc2Br)cn1` [compound 28, 5-Bromo-N^2-(2-methoxy-4-morpholinophenyl)-N^4-(6-methoxypyridin-3-yl)pyrimidine-2,4-diamine] was tested. Which IC50 did it give?
A: The IC50 was 200 to 2000 nM.

Q: `COc1ccc(Nc2nc(Nc3ccc4[nH]ccc4c3)ncc2Cl)cn1` [compound 29, 5-Chloro-N^2-(1H-indol-5-yl)-N^4-(6-methoxypyridin-3-yl) pyrimidine-2,4-diamine] was tested. Which IC50 did it give?
A: Its IC50 is 200 to 2000 nM.

Q: How did the IC50 turn out when `COc1ccc(Nc2nc(Nc3ccc4[nH]ccc4c3)ncc2Br)cn1` [compound 30, 5-Bromo-N^2-(1H-indol-5-yl)-N^4-(6-methoxypyridin-3-yl) pyrimidine-2,4-diamine] was run?
A: The IC50 was less than 200 nM.

Q: For `COc1cc(Nc2ncc(C(F)(F)F)c(NCc3cccc(S(C)(=O)=O)c3)n2)cc(OC)c1OC` [compound 31, N^4-(3-(Methylsulfonyl)benzyl)-5-(trifluoromethyl)-N^2-(3,4,5-trimethoxyphenyl)pyrimidine-2,4-diamine], which IC50 is on record?
A: The IC50 was less than 200 nM.

Q: Which IC50 does the source give for `CS(=O)(=O)c1cccc(CNc2nc(Nc3ccc4c(c3)CCC(=O)N4)ncc2C(F)(F)F)c1` [compound 32, 6-(4-(3-(Methylsulfonyl)benzylamino)-5-(trifluoromethyl)pyrimidin-2-ylamino)-3,4-dihydroquinolin-2(1H)-one] here?
A: Its IC50 is 200 to 2000 nM.

Q: For `CS(=O)(=O)c1cccc(CNc2nc(Nc3ccc4c(c3)CC(=O)N4)ncc2C(F)(F)F)c1` [compound 33, 5-((4-((3-(Methylsulfonyl)benzyl)amino)-5-(trifluoromethyl)pyrimidin-2-yl)amino)indolin-2-one], which IC50 is on record?
A: The IC50 was 200 to 2000 nM.

Q: With `COc1ccc(C)c(Nc2ncc(Cl)c(Nc3ccc(OC)nc3)n2)c1` [compound 34, 5-Chloro-N^2-(5-methoxy-2-methylphenyl)-N^4-(6-methoxypyridin-3-yl)pyrimidine-2,4-diamine] as the molecule, how does the IC50 read?
A: Its IC50 is greater than 2000 nM.

Q: Which IC50 does the source give for `CNC(=O)c1ccccc1Nc1nc(Nc2cc(OC)c(OC)c(OC)c2)ncc1C(F)(F)F` [compound 36, N-Methyl-2-(5-(trifluoromethyl)-2-(3,4,5-trimethoxyphenylamino)pyrimidin-4-ylamino)benzamide] here?
A: The IC50 was greater than 2000 nM.

Q: `COc1ccc(Nc2nc(Nc3cc(OC)c(OC)c(OC)c3)ncc2C(F)(F)F)cn1` [compound 37, N^4-(6-Methoxypyridin-3-yl)-5-(trifluoromethyl)-N^2-(3,4,5-trimethoxyphenyl)pyrimidine-2,4-diamine] was tested. Which IC50 did it give?
A: The IC50 was less than 200 nM.

Q: How did the IC50 turn out when `COc1cc(Nc2ncc(C(F)(F)F)c(Nc3ccccn3)n2)cc(OC)c1OC` [compound 38, N^4-(Pyridin-2-yl)-5-(trifluoromethyl)-N^2-(3,4,5-trimethoxyphenyl)pyrimidine-2,4-diamine] was run?
A: The IC50 was 200 to 2000 nM.

Q: How did the IC50 turn out when `CNC(=O)c1ccccc1Nc1nc(Nc2ccc(N3CCOCC3)cc2OC)ncc1C(F)(F)F` [compound 39, 2-(2-(2-Methoxy-4-morpholinophenylamino)-5-(trifluoromethyl)pyrimidin-4-ylamino)-N-methylbenzamide] was run?
A: The IC50 was less than 200 nM.

Q: Which IC50 does the source give for `COc1ccc(Nc2nc(Nc3ccc(N4CCOCC4)cc3OC)ncc2C(F)(F)F)cn1` [compound 40, N^2-(2-methoxy-4-morpholinophenyl)-N^4-(6-methoxypyridin-3-yl)-5-(trifluoromethyl)pyrimidine-2,4-diamine] here?
A: The IC50 was greater than 2000 nM.

Q: Which IC50 does the source give for `COc1ccc(C)c(Nc2ncc(Cl)c(NCc3cccc(S(C)(=O)=O)c3)n2)c1` [compound 41, 5-Chloro-N^2-(5-methoxy-2-methylphenyl)-N^4-(3-(methylsulfonyl)benzyl)pyrimidine-2,4-diamine] here?
A: The IC50 was greater than 2000 nM.

Q: `CNC(=O)c1ccccc1Nc1nc(Nc2cc(OC)ccc2C)ncc1C(F)(F)F` [compound 42, 2-(2-(5-Methoxy-2-methylphenylamino)-5-(trifluoromethyl)pyrimidin-4-ylamino)-N-methylbenzamide] was tested. Which IC50 did it give?
A: The IC50 was less than 200 nM.

Q: For `O=C1CCc2cc(Nc3ncc(C(F)(F)F)c(NCc4ccccc4)n3)ccc2N1` [compound 43, 6-(4-(Benzylamino)-5-(trifluoromethyl)pyrimidin-2-ylamino)-3,4-dihydroquinolin-2(1H)-one], which IC50 is on record?
A: Its IC50 is less than 200 nM.

Q: For `CNC(=O)c1ccccc1Nc1nc(Nc2cccc(OC)c2)ncc1Cl` [compound 44, 2-(5-Chloro-2-(3-methoxyphenylamino)pyrimidin-4-ylamino)-N-methylbenzamide], which IC50 is on record?
A: The IC50 was less than 200 nM.

Q: Which IC50 does the source give for `COc1cc(N2CCOCC2)ccc1Nc1ncc(C(F)(F)F)c(Nc2ccccn2)n1` [compound 46, N^2-(2-Methoxy-4-morpholinophenyl)-N^4-(pyridin-2-yl)-5-(trifluoromethyl) pyrimidine-2,4-diamine] here?
A: The IC50 was 200 to 2000 nM.

Q: `O=C1CCc2cc(Nc3ncc(C(F)(F)F)c(Nc4ccccc4)n3)ccc2N1` [compound 48, 6-(4-(Phenylamino)-5-(trifluoromethyl)pyrimidin-2-ylamino)-3,4-dihydroquinolin-2(1H)-one] was tested. Which IC50 did it give?
A: The IC50 was less than 200 nM.

Q: For `CNC(=O)c1ccccc1Nc1nc(Nc2ccc3c(c2)OCO3)ncc1Cl` [compound 49, 2-(2-(Benzo[d][1,3]dioxol-5-ylamino)-5-chloropyrimidin-4-ylamino)-N-methylbenzamide], which IC50 is on record?
A: Its IC50 is less than 200 nM.

Q: `CNC(=O)c1ccccc1Nc1nc(Nc2ccc3c(c2)OCCO3)ncc1Cl` [compound 51, 2-(5-Chloro-2-(2,3-dihydrobenzo[b][1,4]dioxin-6-ylamino)pyrimidin-4-ylamino)-N-methylbenzamide] was tested. Which IC50 did it give?
A: The IC50 was less than 200 nM.

Q: With `COc1cc(N2CCOCC2)ccc1Nc1ncc(C(F)(F)F)c(NCc2cccc(S(C)(=O)=O)c2)n1` [compound 52, N^2-(2-Methoxy-4-morpholinophenyl)-N^4-(3-(methylsulfonyl)benzyl)-5-(trifluoromethyl)pyrimidine-2,4-diamine] as the molecule, how does the IC50 read?
A: The IC50 was greater than 2000 nM.

Q: With `CNC(=O)c1ccccc1Nc1nc(Nc2ccccc2C)ncc1Cl` [compound 53, 2-(5-Chloro-2-(o-tolylamino)pyrimidin-4-ylamino)-N-methylbenzamide] as the molecule, how does the IC50 read?
A: Its IC50 is greater than 2000 nM.

Q: For `COc1ccc(C)c(Nc2ncc(Cl)c(Nc3cccc(CC#N)c3)n2)c1` [compound 54, 2-(3-(5-Chloro-2-(5-methoxy-2-methylphenylamino)pyrimidin-4-ylamino)phenyl)acetonitrile], which IC50 is on record?
A: Its IC50 is greater than 2000 nM.

Q: For `COc1ccc(C)c(Nc2ncc(Cl)c(Nc3nccc(C)n3)n2)c1` [compound 55, 5-Chloro-N^2-(5-methoxy-2-methylphenyl)-N^4-(4-methylpyrimidin-2-yl)pyrimidine-2,4-diamine], which IC50 is on record?
A: The IC50 was greater than 2000 nM.

Q: `CS(=O)(=O)c1cccc(CNc2nc(Nc3ccc4c(c3)CCC(=O)N4)ncc2F)c1` [compound 56, 6-((5-Fluoro-4-((3-(methylsulfonyl)benzyl)amino)pyrimidin-2-yl)amino)-3,4-dihydroquinolin-2(1H)-one] was tested. Which IC50 did it give?
A: Its IC50 is greater than 2000 nM.

Q: `CNC(=O)c1ccccc1Nc1nc(Nc2cc3c(cc2C)OCO3)ncc1Cl` [compound 57, 2-(5-Chloro-2-(6-methylbenzo[d][1,3]dioxol-5-ylamino)pyrimidin-4-ylamino)-N-methylbenzamide] was tested. Which IC50 did it give?
A: Its IC50 is less than 200 nM.

Q: Which IC50 does the source give for `O=C1CCc2cc(Nc3ncc(C(F)(F)F)c(Nc4nccs4)n3)ccc2N1` [compound 58, 6-(4-(Thiazol-2-ylamino)-5-(trifluoromethyl)pyrimidin-2-ylamino)-3,4-dihydroquinolin-2(1H)-one] here?
A: The IC50 was greater than 2000 nM.

Q: With `CNC(=O)c1ccccc1Nc1ccnc(Nc2cc(OC)c(OC)c(OC)c2)n1` [compound 60, N-Methyl-2-(2-(3,4,5-trimethoxyphenylamino)pyrimidin-4-ylamino)benzamide] as the molecule, how does the IC50 read?
A: Its IC50 is less than 200 nM.

Q: For `N#CCc1cccc(Nc2nc(Nc3ccc4c(c3)CCC(=O)N4)ncc2C(F)(F)F)c1` [compound 61, 2-(3-(2-(2-Oxo-1,2,3,4-tetrahydroquinolin-6-ylamino)-5-(trifluoromethyl)pyrimidin-4-ylamino)phenyl)acetonitrile], which IC50 is on record?
A: The IC50 was less than 200 nM.

Q: For `O=C1CCc2cc(Nc3ncc(C(F)(F)F)c(SCc4ccccc4)n3)ccc2N1` [compound 62, 6-(4-(Benzylthio)-5-(trifluoromethyl)pyrimidin-2-ylamino)-3,4-dihydroquinolin-2(1H)-one], which IC50 is on record?
A: The IC50 was less than 200 nM.

Q: Which IC50 does the source give for `O=C1CCc2cc(Nc3ncc(C(F)(F)F)c(C#Cc4ccccc4)n3)ccc2N1` [compound 64, 6-(4-(Phenylethynyl)-5-(trifluoromethyl)pyrimidin-2-ylamino)-3,4-dihydroquinolin-2(1H)-one] here?
A: Its IC50 is greater than 2000 nM.

Q: `O=C1CCc2cc(Nc3ncc(C(F)(F)F)c(CCc4ccccc4)n3)ccc2N1` [compound 66, 6-((4-Phenethyl-5-(trifluoromethyl)pyrimidin-2-yl)amino)-3,4-dihydroquinolin-2(1H)-one] was tested. Which IC50 did it give?
A: Its IC50 is 200 to 2000 nM.

Q: With `Cc1cnc(Nc2ccc3c(c2)CCC(=O)N3)nc1NCc1cccc(S(C)(=O)=O)c1` [compound 67, 6-((5-Methyl-4-((3-(methylsulfonyl)benzyl)amino)pyrimidin-2-yl)amino)-3,4-dihydroquinolin-2(1H)-one] as the molecule, how does the IC50 read?
A: The IC50 was greater than 2000 nM.

Q: For `O=C1CCc2cc(Nc3ncc(C(F)(F)F)c(/C=C/c4ccccc4)n3)ccc2N1` [compound 69, (E)-6-(4-Styryl-5-(trifluoromethyl)pyrimidin-2-ylamino)-3,4-dihydroquinolin-2(1H)-one], which IC50 is on record?
A: Its IC50 is less than 200 nM.

Q: With `CNC(=O)c1ccccc1Nc1nc(Nc2cc(OC)c(OC)c(OC)c2)ncc1/C=C/c1ccccc1` [compound 71, (E)-N-Methyl-2-((5-styryl-2-((3,4,5-trimethoxyphenyl)amino)pyrimidin-4-yl)amino)benzamide] as the molecule, how does the IC50 read?
A: Its IC50 is less than 200 nM.

Q: Which IC50 does the source give for `O=C1CCc2cc(Nc3ncc(C(F)(F)F)c(-c4ccccc4)n3)ccc2N1` [compound 72, 6-(4-Phenyl-5-(trifluoromethyl)pyrimidin-2-ylamino)-3,4-dihydroquinolin-2(1H)-one] here?
A: Its IC50 is greater than 2000 nM.
